# Measured values taken from patent US20190298715A1, “IMMUNE EFFECTOR CELL THERAPIES WITH ENHANCED EFFICACY” (Novartis AG, priority 2016, published 2019).
# Substitutions are numbered along the chain they refer to.
# B1: LSD1 1A: shRNA to LSD1, encoded by SEQ ID NO: 125 (nucleic acid)
# DNA: CGGTTGCTAGAAGCTACATCTGTTAATATTCATAGCAGATGTAGCTTCTAGCAACCGTTTTTTGA
# B2: LSD1 1B: shRNA to LSD1, encoded by SEQ ID NO: 126 (nucleic acid)
# DNA: B1 DNA with C14T, C20T
# modifications: the letters are possibly those of the target site
# Assays:
# full-length LSD1 = biological target: T1, full-length LSD1 (Homo sapiens, UniProt O60341); assay: FL-LSD1 LC-MS assay; assay type: biochemical; details: 0.4 nM FL-LSD1, 0.25 μM FAD, 0.5 μM H3K4me1 peptide, 60 min; read-out: LCMS IC50 (LSD1 IC50 as measured by LCMS)
# T1 construct: the full-length LSD1 and 0.5 μM FAD in reaction buffer
# Protocol: Representative compounds of the present disclosure were serially and separately diluted 3-fold in DMSO to obtain a total of twelve concentrations. […] A 5 μL solution of 1 μM of the peptide substrate H3K4me1 (histone H3[1-21]-biotin) in reaction buffer was added to each initiate reaction. […] The conversion ratio of H3K4me1 substrate to the H3K4me0 product was calculated by dividing the peak area of the H3K4me0 peptide by the total peak area of all those two peptides on the assumption that the ionization efficiency of those peptides is the same. The data were then fit to a dose response equation using the program Helios to get the IC50 values of the test compound.
# human T cells = assay: T cell phenotype after anti-CD3/CD28 expansion with LSD1 shRNA (flow cytometry); assay type: cell-based; details: 10 days anti-CD3/CD28 expansion, transfected with DNA encoding shRNA
# Protocol: Flow cytometry was performed on a four laser Fortessa (Becton-Dickinson).
# Inhibition of LSD1 by shRNA promotes the expansion of TSCM cells T cells were isolated by negative selection and expanded with anti-CD3/CD28 beads at a 3:1 ratio for 10 days. On day 1, T cells were transduced with lentiviral expression vectors containing LSD1 shRNA targeting sequences that co-expressed the fluorescent protein mCherry. Following expansion, T cell phenotypes of mCherry+ T cells were assessed by flow cytometry.
Molecule,IC50 (full-length LSD1),percentage of CD4+ T cells having the TSCM (CD45RA+CD62L+CCR7+CD27+CD95+) phenotype (human T cells),percentage of CD8+ T cells having the TSCM (CD45RA+CD62L+CCR7+CD27+CD95+) phenotype (human T cells)
"COc1ccc(-n2cc(-c3cccc(N)c3C)c3cc(C#N)c(C)cc32)cc1 [NVS Compound 2, 3-(3-amino-2-methylphenyl)-1-(4-methoxyphenyl)-6-methyl-1H-indole-5-carbonitrile]",5 nM,,
"LSD1 2: shRNA to LSD1, encoded by SEQ ID NO: 127 (DNA CAGAAGGCCTAGACATTAAACCTCGAGGTTTAATGTCTAGGCCTTCTGTTTTTTGA; the letters are possibly those of the target site)",,enriched in TSCM,~50%
CS(=O)(=O)c1ccc(-c2cc(-c3cc(C#N)c(N4CCNCC4)[nH]3)ccc2Cl)cc1 [5-(6-chloro-4′-(methylsulfonyl)biphenyl-3-yl)-2-(piperazin-1-yl)-1H-pyrrole-3-carbonitrile],12 nM,,
"CN(C)C1CCN(S(=O)(=O)c2ccc(-n3ncc4c(-c5ccc(C6CCNCC6)cc5)cccc43)cc2)CC1 [N,N-dimethyl-1-((4-(4-(4-(piperidin-4-yl)phenyl)-1H-indazol-1-yl)phenyl)sulfonyl)piperidin-4-amine]",9 nM,,
B1,,enriched in TSCM,~50%
B2,,up to 20%,~50%
